Read-outs that look alike come from different tables or passages of the source.
Key:
[1] = biological target: T1, PPARα (Homo sapiens, UniProt Q07869); experiment: PPARα transactivation activity (GAL4-hPPARα LBD luciferase reporter in CV-1 cells); format: cell-based; conditions: for Relative activity for PPAR transactivation, α: compounds at 10^-7 M; for Relative PPARα transactivation activity (α): test compound 10^-6 M, 40 hours, CV-1 cells, 100% = 10^-4 M, 0% = DMSO (0.1%)
T1 construct: Receptor expression plasmid (GAL4-hPPARα, LBD GAL4-hPPARγ LBD, GAL4-hPPARδ LBD); expressed in transfected cells; host or cells: CV-1 cells
T1 sequence (Q07869 239-466 limits assumed): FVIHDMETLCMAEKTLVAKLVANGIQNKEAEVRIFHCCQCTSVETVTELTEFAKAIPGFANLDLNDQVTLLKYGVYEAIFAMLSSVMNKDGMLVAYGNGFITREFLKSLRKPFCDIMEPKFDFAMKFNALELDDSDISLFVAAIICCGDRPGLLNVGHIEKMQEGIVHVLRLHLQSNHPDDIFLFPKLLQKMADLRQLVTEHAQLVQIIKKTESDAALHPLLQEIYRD
Protocol: (§1) (1) Measurement of PPARα, γ, δ transactivation activity
PPARα, γ, δ transactivation activity of each compound [Examples 1-4] was measured in the manner described below.
(§2) CV-1 cells were obtained from Tohoku University Aging Medical Laboratory, Medical Cell Collection Center. All test compounds were dissolved in dimethylsulfoxide (DMSO). Final concentration of DMSO was 0.1%.
Receptor expression plasmid (GAL4-hPPARα, LBD GAL4-hPPARγ LBD, GAL4-hPPARδ LBD), Reporter plasmid (UASx4-TK-LUC), and β-galactosidase expression plasmid (βGAL) similar to Kliewer, S. A., et al., ((1992) Nature, 358:771-774) were used.
(§3) CV-1 cells were seeded in 24 well culture plates at 2×10^5 cells per well, and cultured for 24 hours OPTI-MEM I Reduced Serum Medium (Life Technologies, 500 μL/well) containing 4%-fetal bovine serum (FBS). After washing with OPTI-MEM, transfection mixture (250 μL/well) containing 0.03 μg of GAL4-hPPARδ LBD, 0.25 μg of UASx4-TK-LUC, 0.35 μg of βGAL, and 2 μL of lipofection reagent, DMRIE-C (Life Technologies) were added. The cells were incubated for 5 hours at 37° C.
The cells were washed and incubated for 40 hours in the presence of the test compound (final concentration was 10^−6M).
(§4) The culture medium was removed and the cells were washed with PBS twice. A solubilizing buffer (100 μL/well) containing 25 mM Tris-PO4 (pH 7.8), 15%v/v glycerol, 2% CHAPS, 1% Lecithin, 1% BSA, 4 mM EGTA (pH 8.0), 8 mM MgCl2, 1 mM DTT was added. After the incubation for 10 minutes at room temperature, a portion (20 μL) of the solution was transferred into a 96-well plate. Subsequently, 100 μL of luciferase substrate solution (Piccagene: available from Nippon Gene Co., Ltd.) was added, and a luminous intensity per one second (luciferase activity) was measured using a microluminoreader (Type MLR-100, Corona Electrics Co., Ltd.). Each luciferase activity was corrected by the transfection efficiency which was calculated from β-galactosidase activity. The assay method of β-galactosidase activity was as follows: A portion (50 μL) of the solubilized sample was transferred into another 96-well plate; 100 μL of ONPG (2-nitrophenyl-β-galactopyranoside) solution was added and incubated for 5 minutes at room temperature. 50 μL of a reaction stopping solution (1M sodium carbonate solution) was added. Then the absorbance at 414 nm was measured.
A relative PPAR activity was calculated as follows: 0% (luciferase activity of cells treated with DMSO (0.1%) alone), 100% (luciferase activity of cells treated with a control (PPARα: 10^−4 M […], PPARγ: 10^−5 M Rosiglitazone, PPARδ: 10^−4 M L-165041)).
PPAR transactivation activities of the compounds of Examples 5-10 were assayed in the same manner as described in Example 11.
Relative activities for PPAR transactivation were shown.
Each value represents as % of control. Cells were cultured in the presence of compounds at 10^−7 M except that PPARδ of Examples 5, 6 and 7 were assayed at 10^−8 M.

[2] = biological target: T2, PPARγ (Homo sapiens, UniProt P37231); experiment: PPARγ transactivation activity (GAL4-hPPARγ LBD luciferase reporter in CV-1 cells); format: cell-based; conditions: for Relative PPARγ transactivation activity (γ): test compound 10^-6 M, 40 hours, CV-1 cells, 100% = 10^-5 M Rosiglitazone, 0% = DMSO (0.1%)
T2 construct: Receptor expression plasmid (GAL4-hPPARα, LBD GAL4-hPPARγ LBD, GAL4-hPPARδ LBD); expressed in transfected cells; host or cells: CV-1 cells
T2 sequence (P37231 238-503 limits assumed): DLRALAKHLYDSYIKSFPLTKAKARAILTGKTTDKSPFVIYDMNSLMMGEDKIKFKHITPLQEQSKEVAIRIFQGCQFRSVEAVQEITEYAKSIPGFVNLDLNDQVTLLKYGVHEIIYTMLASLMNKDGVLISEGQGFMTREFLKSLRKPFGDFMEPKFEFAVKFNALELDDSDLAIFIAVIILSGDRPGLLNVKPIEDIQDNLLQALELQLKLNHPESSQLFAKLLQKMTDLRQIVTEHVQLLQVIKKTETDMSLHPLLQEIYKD
Protocol: as §1, §2
as §3, with “C. […]” for “C.”
as §4

[3] = biological target: T3, PPARδ (Homo sapiens, UniProt Q03181); experiment: PPARδ transactivation activity (GAL4-hPPARδ LBD luciferase reporter in CV-1 cells); format: cell-based; conditions: for PPARδ transactivation activity (statement in words on Table 25) / Relative PPARδ transactivation activity (δ): CV-1 cells, test compound 10^-6 M; for PPARδ transactivation activity (statement in words on Table 25): control 10^-4 M L-165041 = 100%; for Relative PPARδ transactivation activity (δ): 40 hours, 100% = 10^-4 M L-165041, 0% = DMSO (0.1%)
T3 construct: transfection mixture (250 μL/well) containing 0.03 μg of GAL4-hPPARδ LBD; expressed in transfected cells; host or cells: CV-1 cells
T3 sequence (Q03181 211-439 limits assumed): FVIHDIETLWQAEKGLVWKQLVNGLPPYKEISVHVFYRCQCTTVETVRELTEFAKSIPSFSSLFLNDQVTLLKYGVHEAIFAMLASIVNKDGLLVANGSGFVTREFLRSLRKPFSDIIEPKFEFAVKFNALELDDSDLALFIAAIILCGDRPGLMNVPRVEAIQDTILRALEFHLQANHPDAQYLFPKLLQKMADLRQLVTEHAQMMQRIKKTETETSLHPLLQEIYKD
Protocol: PPARδ transactivation activity of the compound of the invention was measured in the manner described below.
A receptor expression plasmid (GAL4-hPPARδ LBD), a reporter plasmid (UASx4-TK-LUC) and a β-galactosidase (β-GAL) expression plasmid were transfected into CV-1 cells by using DMRIE-C reagent. Subsequently, the cells were incubated for 40 hours in the presence of a compound of the invention, and then the luciferase and β-GAL activities of the cell lysate were assayed.
as §1, §2
as §3, with “C. […]” for “C.”
as §4

[4] = tested on: db/db mice
Protocol: HDL cholesterol elevating effect was measured by using db/db mice, which are hereditary obesity mice. The db/db mice (10 weeks old) were divided into groups based on serum HDL cholesterol levels. […] Mice of the control group (to which no agent was administered) were orally given 1% methyl cellulose solution. After 16 hours from the final administration, blood sample was collected, and serum HDL cholesterol level was measured. HDL cholesterol was separated by electrophoresis on agarose gels (Chol/Trig Combo, Helena Laboratories). Serum total cholesterol levels were measured enzymaticallly using a kit (Pure Auto, Daiichi Chemicals) by an automatic analyzer (7060E type, Hitachi Ltd.). HDL cholesterol levels were calculated from total cholesterol levels and HDL cholesterol/total cholesterol ratios.
Each value represents as % of the control group.

[5] = compounds at 10^-8 M (Examples 5, 6 and 7)

SMILES | Relative activity for PPAR transactivation, α [1] | Relative activity for PPAR transactivation, γ ([2]; compounds at 10^-7 M) | Relative activity for PPAR transactivation, δ ([3]; compounds at 10^-7 M) | Relative activity for PPAR transactivation, δ [3, 5] | Relative PPARα transactivation activity (α) [1] [%] | Relative PPARγ transactivation activity (γ) [2] [%] | Relative PPARδ transactivation activity (δ) [3] [%] | further results
Cc1cc2c(CCc3sc(-c4ccc(C(F)(F)F)cc4)nc3C(C)C)noc2cc1OC(C)(C)C(=O)O [Example 6, 2-[[3-[2-[4-Isopropyl-2-(4-trifluoromethyl)phenyl-5-thiazolyl]ethyl]-5-methyl-1,2-benzisoxazol-6-yl]oxy]-2-methylpropionic acid] | 0 % of control | – | – | 54 % of control | – | – | – | Ratio of increasing HDL cholesterol ([4]; 10 mg/kg b.i.d. orally for one week, serum 16 hours after final administration): 164 % to control; HDL cholesterol elevating effect (statement in words on Table 27) ([4]; oral, twice daily for one week, serum HDL cholesterol 16 hours after final administration): potent HDL cholesterol elevating effect; Relative activity for PPAR transactivation, γ [2]: 0 % of control
C=CCc1c(OC(C)(C)C(=O)O)ccc2c(CCc3nc(-c4ccc(Cl)cc4Cl)oc3C(C)C)noc12 [Example 2, 2-[[7-Allyl-3-[2-[2-(2,4-dichlorophenyl)-5-isopropyl-4-oxazolyl]ethyl]-1,2-benzisoxazol-6-yl]oxy]-2-methylpropionic acid] | – | – | – | – | 8.0 | 3.2 | 67.8 | PPARδ transactivation activity (statement in words on Table 25) [3]: selective PPARδ transactivation activity
C=CCc1c(OCC(=O)O)ccc2c(CCc3nc(-c4ccc(Cl)cc4Cl)oc3C(C)C)noc12 [Example 1, [[7-Allyl-3-[2-[2-(2,4-dichlorophenyl)-5-isopropyl-4-oxazolyl]ethyl]-1,2-benzisoxazol-6-yl]oxy]acetic acid] | – | – | – | – | 0.1 | 9.4 | 76.9 | PPARδ transactivation activity (statement in words on Table 25) [3]: selective PPARδ transactivation activity
C=CCc1c(OC(C)(C)C(=O)O)ccc2c(CCc3sc(-c4ccc(C(F)(F)F)cc4)nc3C(C)C)noc12 [Example 4, 2-[[7-Allyl-3-[2-[2-[(4-trifluoromethyl)phenyl]-4-isopropyl-5-thiazolyl]ethyl]-1,2-benzisoxazol-6-yl]oxy]-2-methylpropionic acid] | – | – | – | – | 85.0 | 9.5 | 59.9 | –

The next lines start with results.

Relative activity for PPAR transactivation, α [1] | Relative activity for PPAR transactivation, γ ([2]; compounds at 10^-7 M) | Relative activity for PPAR transactivation, δ ([3]; compounds at 10^-7 M) | Relative activity for PPAR transactivation, δ [3, 5] | Relative PPARα transactivation activity (α) [1] [%] | Relative PPARγ transactivation activity (γ) [2] [%] | Relative PPARδ transactivation activity (δ) [3] [%] | SMILES | further results
3 % of control | 0 % of control | 75 % of control | – | – | – | – | Cc1cc2c(CCc3sc(-c4ccc(C(F)(F)F)cc4)nc3C(C)C)noc2cc1OC(C)(C)C(=O)OCCN1CCCCC1.Cl [Example 10, 2-[[3-[2-[4-Isopropyl-2-(4-trifluoromethyl)phenyl-5-thiazolyl]ethyl]-5-methyl-1,2-benzisoxazol-6-yl]oxy]-2-methylpropionic acid 2-piperidin-1-yl ethyl ester hydrochloride] | –
0 % of control | 0 % of control | – | 75 % of control | – | – | – | Cc1cc2c(CCc3sc(-c4ccc(C(F)(F)F)cc4)nc3C(C)C)noc2cc1OCC(=O)O [Example 5, [3-[2-[4-Isopropyl-2-(4-trifluoromethyl)phenyl-5-thiazolyl]-ethyl]-5-methyl-1,2-benzisoxazol-6-yl]oxyacetic acid] | –
0 % of control | 0 % of control | – | 63 % of control | – | – | – | Cc1cc2c(CCc3sc(-c4ccc(C(F)(F)F)cc4)nc3C(C)C)noc2cc1SCC(=O)O [Example 7, [3-[2-[4-Isopropyl-2-(4-trifluoromethyl)phenyl-5-thiazolyl]ethyl]-5-methyl-1,2-benzisoxazol-6-yl]thioacetic acid] | –
0 % of control | 0 % of control | 61 % of control | – | – | – | – | Cc1cc2c(CCc3sc(-c4ccc(C(F)(F)F)cc4)nc3C(C)C)noc2cc1NCC(=O)O [Example 8, [3-[2-[4-Isopropyl-2-(4-trifluoromethyl)phenyl-5-thiazolyl]ethyl]-5-methyl-1,2-benzisoxazol-6-yl]aminoacetic acid] | –
0 % of control | 2 % of control | 86 % of control | – | – | – | – | Cc1cc2c(CCc3nc(-c4ccc(Cl)cc4Cl)oc3C(C)C)noc2cc1OCC(=O)O [Example 9, (3-[2-[2-(2,4-Dichlorophenyl)-5-isopropyl-4-oxazolyl]ethyl]-5-methyl-1,2-benzisoxazol-6-yl]oxyacetic acid] | –

— US7402597B2, “Activator of peroxisome proliferator-activated receptor δ” (Nippon Chemiphar Co., Ltd, priority 2001, dated 2008)
